Test results as given in patent publication US20100036088A1, “Selective poly-N-substituted glycine antibiotics” (priority 2008, published 2010).
Several values for one entry are separate records, joined by “and”; a condition that tells them apart may be missing. Equal entries are not always repeated. Where two headings read alike, the source gives them in different places. Numbered stars: 1 amine (or outer) side, 2 acyl side, 3 side chain; on linkers, the order of the positions; unused ones are H or OH. Square brackets hold non-standard residues; d marks the D form. Peptide text beside a SMILES is read from it. X1 = CC(C)[C@H](C)N(CC(=O)[*:2])[*:1]; Nspe = C[C@H](NCC(=O)O)c1ccccc1; Nphe = O=C(O)CNCc1ccccc1; Nlys = NCCCCNCC(=O)O

Assays:
B. subtilis (ATCC 6633) = type: cell-based
Outline: (§1)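 MICs by broth microdilution per CLSI M7-A6 in cation-adjusted Mueller-Hinton broth, using 2:1 serial dilutions of peptoid and a bacterial inoculum of 1×10^6 CFU/mL. Values reproducible over three experiments, each with two parallel trials.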

E. coli (ATCC 35218) = type: cell-based
Outline: as §1

[1] = MTS assay, metabolic inhibition; type: cell-based, mouse
Outline: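 NIH/3T3 cells seeded at 5,000 per well, grown a day, then exposed to serially diluted peptoids in HBSS together with MTS reagent. Absorbance at 490 nm read after 3 hours at 37° C.; mean of six replicates.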

[2] = RP-HPLC elution solvent composition as measure of molecular hydrophobicity; type: physicochemical; conditions: Table 5; average of three injections; linear 5%-95% acetonitrile/water (0.1% TFA) over 45 minutes, C18 column; measure of hydrophobicity
Excerpt: (§2) An initial set of 15 ampetoid analogs was synthesized to determine whether peptoids are affected by structural and sequence modifications in a manner consistent with AMP activities. The designs for ampetoids in this library were derived from two antibacterial and selective amphipathic dodecamers, 1 and 2. Peptoid 1 [H-(Nlys-Nspe-Nspe)4—NH2] is composed of 2/3 Nspe, the peptoid analog of phenylalanine, and 1/3 Nlys, the peptoid analog of lysine (see FIG. 1 for the structures of representative peptoid monomers and corresponding N-substituents). Peptoid 2 [H-(Nlys-Nssb-Nspe)4—NH2] contains 1/3 isoleucine-like Nssb monomers in place of Nspe. The variant sequences were designed to effect changes in chirality, length, hydrophobicity, charge, and amphipathicity. All of these compounds were tested for antibacterial activity against representative BSL1 Gram-negative (E. coli JM109) and Gram-positive (B. subtilis BR151) bacterial strains. As an initial measure of selectivity, the lytic activity of the peptoids was determined against human erythrocytes. Table 1 summarizes the sequences synthesized, the solvent composition at RP-HPLC elution as a relative measure of molecular hydrophobicity, and antibacterial and hemolytic activities.
Following synthesis, peptoid oligomers can be cleaved from the resin, simultaneously removing the tert-butoxycarbonyl (Boc) protecting group from Nlys residues, by treatment with 10 ml 2,2,2-trifluoroacetic acid (TFA)/triisopropylsilane/H2O (95:2.5:2.5 by volume) for 30 min. The cleavage mixture is then diluted with 25 ml 50% aqueous acetonitrile, frozen, and lyophilized. Dilution and lyophilization is repeated twice more in order to remove excess TFA. Subsequent to cleavage, peptoids are each purified to >97% homogeneity by preparative scale reversed-phase HPLC using a Waters Prep LC 4000 system, with Waters 2487 dual-wavelength UV detection, and gradient elution (solvent A, 0.1 vol % trifluoroacetic acid (TFA) in water; solvent B, 0.1 vol % TFA in acetonitrile) through a Vydac (Hysperia, Calif.) 214TP101550 C4 peptide/protein column (10-15 μm, 300 Å, 5×25 cm). Following prep HPLC, peptoid purities and crude yields were determined from analytical scale HPLC, performed with a Waters 2695 Separations Module with a Waters 2487 dual-wavelength UV detector and gradient elution (solvent A, 0.1 vol % TFA in water; solvent B, 0.1 vol % TFA in acetonitrile) through a Vydac C4 214TP53 peptide/protein column (5 μm, 300 Å, 3.2×250 mm). The precise gradient employed for HPLC depended on the identity and hydrophobicity of the oligomer in question. All analytical HPLC was performed at 0.5 ml/min flow and 58° C. Preparative HPLC was performed at 50 ml/min flow and room temperature.

E. coli JM109 = type: cell-based
Excerpt: as §2
Antibacterial assays. MICs were determined according to CLSI M7-A6 protocols in a 96-well microtiter plate. In test wells, 50 μL bacterial inoculum (5×10^5 CFU/ml) in Mueller-Hinton broth (MHB) was added to 50 μL peptoid solution in MHB (prepared by 1:2 serial dilutions). Positive controls contained 50 μL inoculum and 50 μL MHB without peptoid. […] MIC values reported were reproducible between three independent experimental replicates, each consisting of two parallel trials. Broad-spectrum antimicrobial susceptibility testing was performed against BSL2 pathogens by Nova Biologicals, Inc. (Conroe, Tex.).

## CC(C)[C@H](C)N(CC(=O)N(CC(=O)N(CCCCN)CC(=O)N(CC(=O)N(CC(=O)N(CCCCN)CC(=O)N(CC(=O)N(CC(=O)N(CCCCN)CC(=O)N(CC(=O)N(CC(N)=O)[C@@H](C)c1ccccc1)[C@@H](C)C(C)C)[C@@H](C)c1ccccc1)[C@@H](C)C(C)C)[C@@H](C)c1ccccc1)[C@@H](C)C(C)C)[C@@H](C)c1ccccc1)C(=O)CNCCCCN [1-Nsdp2,5,8,11, H-(Nlys-Nsdp-Nspe)4-NH2] (H-[Nlys][X1][Nspe][Nlys][X1][Nspe][Nlys][X1][Nspe][Nlys][X1][Nspe]-NH2)
B. subtilis (ATCC 6633); ATCC 6633
  B. subtilis MIC: 0.78 µM
E. coli (ATCC 35218); Table 6, ATCC 35218
  E. coli MIC: 12.5 µM
[1]
  IC50: 20 µM
[2]
  HPLC elution (% ACN): 63.8 % ACN

## C[C@@H](c1ccccc1)N(CC(N)=O)C(=O)CN(C(=O)CN(CCCCN)C(=O)CN(C(=O)CN(C(=O)CN(CCCCN)C(=O)[C@@H]1CCCN1C(=O)CN(C(=O)CN(CCCCN)C(=O)CN(C(=O)CN(C(=O)CNCCCCN)[C@@H](C)c1ccccc1)[C@@H](C)c1ccccc1)[C@@H](C)c1ccccc1)[C@@H](C)c1ccccc1)[C@@H](C)c1ccccc1)[C@@H](C)c1ccccc1 [1-Pro6, H-Nlys-Nspe-Nspe-Nlys-Nspe-L-Pro-(Nlys-Nspe-Nspe)2-NH2] (H-[Nlys][Nspe][Nspe][Nlys][Nspe]P[Nlys][Nspe][Nspe][Nlys][Nspe][Nspe]-NH2)
E. coli JM109; JM109
  MICs: < 7 µM
B. subtilis (ATCC 6633); ATCC 6633
  B. subtilis MIC: 1.6 µM
E. coli (ATCC 35218); ATCC 35218
  E. coli MIC: 12.5 µM
[1]
  IC50: 18 µM

## NCCCCNCC(=O)N(CC(=O)N(CC(=O)N(CCCCN)CC(=O)N(CC(=O)N(CC(=O)N(CCCCN)CC(=O)N(CC(=O)N(CC(=O)N(CCCCN)CC(=O)N(CC(=O)N(CC(N)=O)Cc1ccccc1)Cc1ccccc1)Cc1ccccc1)Cc1ccccc1)Cc1ccccc1)Cc1ccccc1)Cc1ccccc1)Cc1ccccc1 [1achiral, H-(Nlys-Npm-Npm)4-NH2] (H-[Nlys][Nphe][Nphe][Nlys][Nphe][Nphe][Nlys][Nphe][Nphe][Nlys][Nphe][Nphe]-NH2)
B. subtilis (ATCC 6633); ATCC 6633
  B. subtilis MIC: 0.78 µM
[1]
  IC50: 16 µM
[2]
  HPLC elution (% ACN): 59.8 % ACN

## C[C@@H](c1ccccc1)N(CC(N)=O)C(=O)CN(C(=O)CN(CCCCN)C(=O)CN(C(=O)CN(C(=O)CN(CCCCN)C(=O)CN(C(=O)CN(C(=O)CN(CCCCN)C(=O)CN(C(=O)CN(C(=O)CNCCCCN)[C@@H](C)c1ccccc1)[C@@H](C)c1ccccc1)[C@@H](C)c1ccccc1)[C@@H](C)c1ccccc1)[C@@H](C)c1ccccc1)[C@@H](C)c1ccccc1)[C@@H](C)c1ccccc1 [compound 1, H-(NLys-Nspe-Nspe)4-NH2] (H-[Nlys][Nspe][Nspe][Nlys][Nspe][Nspe][Nlys][Nspe][Nspe][Nlys][Nspe][Nspe]-NH2)
E. coli JM109; Table 1, E. coli JM109
  E. coli MIC: 3.5 µM
B. subtilis (ATCC 6633); Table 3, ATCC 6633, cation-adjusted MHB
  B. subtilis MIC: 1.6 µM
B. subtilis (ATCC 6633); Table 6, ATCC 6633
  B. subtilis MIC: 1.6 µM
E. coli (ATCC 35218); Table 3, ATCC 35218, cation-adjusted MHB
  E. coli MIC: 6.3 µM
E. coli (ATCC 35218); Table 6, ATCC 35218
  E. coli MIC: 6.25 µM and 6.3 µM
[1]; Table 6, NIH 3T3 mouse fibroblast cells
  IC50: 5.1 µM
